In patent US5391540A, “Substituted pyridine compounds” (Rohm and Haas Company, priority 1993, dated 1995):

Tests used:
Assay in all cases: Pre-emergent herbicidal activity (Table A)
Type in all cases: in vivo
Indian Mustard = conditions: Brassica juncea, pre-emergence, Inmu, 11.2 kg/ha, 10-14 days, read-out: herbicidal rating (% inhibition)
Experimental: (§1) Tables A and B summarize results of tests conducted to determine the pre-emergent herbicidal activity of the compounds of this invention. The herbicidal ratings used in Tables A and B were assigned according to a scale based on the percent inhibition of each plant species. The herbicide rating symbols in Tables A and B are defined as follows: […]
(§2) One set of pre-emergent tests was conducted as follows:
(§3) Topsoil was placed in a pan and compacted to a depth of 0.95 to 1.27 cm. from the top of the pan. A predetermined number of seeds of each of several monocotyledonous and dicotyledonous annual plant species and/or vegetative propagules of various perennial plant species were placed on top of the soil. The soil required to level fill a pan after seeding or adding vegetative propagules was weighed into another pan. A known amount of the test compound dissolved or suspended in an organic solvent or water and applied in acetone or water as a carrier was thoroughly mixed with this cover soil, and the herbicide/soil mixture was used as a cover layer for the previously prepared pan. In Table A below the amounts of active ingredient were all equivalent to an application rate of 11.2 kilograms/hectare (kg/ha). After treatment, the pans were moved to a greenhouse bench where they were watered as needed to give adequate moisture for germination and growth.
(§4) Approximately 10-14 days (usually 11 days) after planting and treating, the plants were observed and the results recorded.
(§5) The plant species usually regarded as weeds which were utilized in one set of pre-emergent activity tests, the data for which are shown in Table A, are identified by letter headings printed diagonally above the columns according to the following legend: […]

Annual Bluegrass = conditions: pre-emergence, Anbg, 11.2 kg/ha, 10-14 days, read-out: herbicidal rating (% inhibition)
Experimental: as §1, §2, §3, §4, §5

Wild Buckwheat = conditions: Fallopia convolvulus, pre-emergence, Wibw, 11.2 kg/ha, 10-14 days, read-out: herbicidal rating (% inhibition)
Experimental: as §1, §2, §3, §4, §5

Seedling Johnsongrass = conditions: Sorghum halepense, pre-emergence, Sejg, 11.2 kg/ha, 10-14 days, read-out: herbicidal rating (% inhibition)
Experimental: as §1, §2, §3, §4, §5

Morningglory = conditions: Ipomoea, pre-emergence, Mogl, 11.2 kg/ha, 10-14 days, read-out: herbicidal rating (% inhibition)
In short: (§6)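 Percent inhibition per species, scored on a rating scale, after pre-emergent soil incorporation: test compound in acetone or water carrier mixed into cover soil, layered over seeded topsoil or vegetative propagules.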

Barnyardgrass = conditions: Echinochloa crus-galli, pre-emergence, Bygr, 11.2 kg/ha, 10-14 days, read-out: herbicidal rating (% inhibition)
In short: as §6

Yellow Nutsedge = conditions: Cyperus, pre-emergence, Yens, 11.2 kg/ha, 10-14 days, read-out: herbicidal rating (% inhibition)
In short: as §6

Downy Brome = conditions: Bromus tectorum, pre-emergence, Dobr, 11.2 kg/ha, 10-14 days, read-out: herbicidal rating (% inhibition)
In short: as §6

Velvetleaf = conditions: Abutilon theophrasti, pre-emergence, Vele, 11.2 kg/ha, 10-14 days, read-out: herbicidal rating (% inhibition)
In short: as §6

Cocklebur = conditions: Xanthium strumarium, pre-emergence, Cobu, 11.2 kg/ha, 10-14 days, read-out: herbicidal rating (% inhibition)
In short: as §6

SMILES	inhibition at 11200 g/ha (Indian Mustard)	inhibition at 11200 g/ha (Annual Bluegrass)	inhibition at 11200 g/ha (Wild Buckwheat)	inhibition at 11200 g/ha (Seedling Johnsongrass)	inhibition at 11200 g/ha (Morningglory)	inhibition at 11200 g/ha (Barnyardgrass)	inhibition at 11200 g/ha (Yellow Nutsedge)	inhibition at 11200 g/ha (Downy Brome)	inhibition at 11200 g/ha (Velvetleaf)	inhibition at 11200 g/ha (Cocklebur)
COC(=O)c1c(OC)nc(C(F)(F)F)c(C(Cl)=NCCCl)c1CC(C)C [Compound 95, 3-pyridinecarboxylic acid, 5-[(chloro[2-chloroethyl)imino)methyl]-2-methoxy-4-(2-methylpropyl)-6-(trifluoromethyl)-, methyl ester]	50 to 74%	75 to 100%	75 to 100%	75 to 100%	0 to 24%	75 to 100%	0 to 24%	25 to 49%	50 to 74%	0 to 24%
COC(=O)c1c(OC)nc(C(F)(F)F)c(CO)c1CC1CC1 [Compound 117, 3-pyridinecarboxylic acid, 4-(cyclopropylmethyl)-5-(hydroxymethyl)-2-methoxy-6-(trifluoromethyl)-, methyl ester]	50 to 74%	75 to 100%	50 to 74%	75 to 100%	0 to 24%	75 to 100%	0 to 24%	0 to 24%	25 to 49%	0 to 24%
COC(=O)c1c(OC)nc(C(F)(F)F)c(C2OCCS2(=O)=O)c1CC(C)C (stereo not drawn) [Compound 127, 3-pyridinecarboxylic acid, 2-methoxy-4-(2-methylpropyl)-5-(3,3-dioxo-1,3-oxathiolan-2-yl)-6-(trifluoromethyl)-, methyl ester]	50 to 74%	75 to 100%	50 to 74%	75 to 100%	25 to 49%	75 to 100%	0 to 24%	75 to 100%	25 to 49%	0 to 24%
COC(=O)c1c(OC)nc(C(F)(F)F)c(C(=O)SC)c1CC1CC1 [Compound 119, 3-pyridinecarboxylic acid, 4-(cyclopropylmethyl)-2-methoxy-5-[(methylthio)carbonyl]-6-(trifluoromethyl)-, methyl ester]	75 to 100%	75 to 100%	75 to 100%	75 to 100%	75 to 100%	75 to 100%	75 to 100%	75 to 100%	75 to 100%	50 to 74%
COC(=O)c1c(OC)nc(C(F)(F)F)c(C2OCC[S+]2[O-])c1CC(C)C (stereo not drawn) [Compound 126, 3-pyridinecarboxylic acid, 2-methoxy-4-(2-methylpropyl)-5-(1,3-oxathiolan-2-yl)-6-(trifluoromethyl)-, methyl ester, S-oxide]	75 to 100%	75 to 100%	75 to 100%	75 to 100%	75 to 100%	75 to 100%	0 to 24%	75 to 100%	75 to 100%	25 to 49%
COC(=O)c1c(OC)nc(C(F)(F)F)c(C(=O)n2cc(N)cn2)c1CC(C)C [Compound 108, 3-pyridinecarboxylic acid, 5-[(4-amino-1H-pyrazo1-1-yl)carbonyl]-2-methoxy-4-(2-methylpropyl)-6-(trifluoromethyl)-, methyl ester]	75 to 100%	75 to 100%	75 to 100%	50 to 74%	0 to 24%	75 to 100%	0 to 24%	0 to 24%	50 to 74%	0 to 24%
COC(=O)c1c(OC)nc(C(F)(F)F)c(C2OCCO2)c1CC1CC1 [Compound 118, 3-pyridinecarboxylic acid, 4-(cyclopropylmethyl)-5-(1,3-dioxolan-2-yl)-2-methoxy-6-(trifluoromethyl)-, methyl ester]	75 to 100%	75 to 100%	75 to 100%	75 to 100%	75 to 100%	75 to 100%	75 to 100%	75 to 100%	75 to 100%	0 to 24%
COC(=O)c1c(OC)nc(C(F)(F)F)c(C2=NCCCO2)c1CC(C)C [Compound 99]	75 to 100%	75 to 100%	25 to 49%	75 to 100%	50 to 74%	75 to 100%	0 to 24%	75 to 100%	75 to 100%	0 to 24%
COC(=O)c1c(OC)nc(C(F)(F)F)c(C2OCCO2)c1CC(C)C [Compound 109, 3-pyridinecarboxylic acid, 5-(1,3-dioxolan-2-yl)-2-methoxy-4-(2-methylpropyl)-6-(trifluoromethyl)-, methyl ester]	75 to 100%	75 to 100%	75 to 100%	75 to 100%	75 to 100%	75 to 100%	75 to 100%	75 to 100%	75 to 100%	75 to 100%
COC(=O)c1c(OC)nc(C(F)(F)F)c(C(=O)NNC(C)=O)c1CC(C)C [Compound 100, 3,5-pyridinedicarboxylic acid, 2-methoxy-4-(2-methylpropyl)-6-(trifluoromethyl)-, 3-methyl ester 5-(2-acetylhydrazide)]	0 to 24%	75 to 100%	0 to 24%	0 to 24%	0 to 24%	0 to 24%	0 to 24%	0 to 24%	0 to 24%	0 to 24%
COC(=O)c1c(OC)nc(C(F)(F)F)c(C(=O)n2ccc(F)n2)c1CC(C)C [Compound 102, 3-pyridinecarboxylic acid, 5-[(3-fluoro-1H-pyrazo1-1-yl)carbonyl]-2-methoxy-4-(2-methylpropyl)-6-(trifluoromethyl)-, methyl ester]	75 to 100%	75 to 100%	75 to 100%	75 to 100%	75 to 100%	75 to 100%	75 to 100%	75 to 100%	75 to 100%	75 to 100%
COC(=O)c1c(OC)nc(C(F)(F)F)c(-c2cnco2)c1CC(C)C [Compound 114, 3-pyridinecarboxylic acid, 2-methoxy-4-(2-methylpropyl)-5-(5-oxazolyl)-6-(trifluoromethyl)-, methyl ester]	75 to 100%	75 to 100%	75 to 100%	75 to 100%	50 to 74%	75 to 100%	25 to 49%	75 to 100%	75 to 100%	0 to 24%
